Data from US11357786B2, “Synthetic disugar hydrocarbons as natural analogs to control microbial behaviors” (Syracuse University, priority 2014, dated 2022).
“Also recorded” adds a separate entry of the source.

Key:
[1] = test system: nonswarming P. aeruginosa mutant rhlA; experiment: Swarming motility of nonswarming rhlA mutant on soft agar (reactivation / agonist assay); type: cell-based, Pseudomonas aeruginosa; details: for Reactivation of swarming motility of rhlA mutant: concentration not given; for Swarming reactivation of rhlA mutant: 110 μM in soft agar; for Concentration that suppresses reactivation of rhlA swarming by DβC: co-administered with 40 μM DβC
Outline: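 rhlA transposon mutant of PAO1 (3 μl, OD600 0.4–0.6) inoculated on M8 soft agar (0.2% glucose, 0.5% casamino acids, 1 mM MgSO4, 0.5% agar) with test compound to find swarming agonists. Incubated 12 h at 37 °C plus 12 h at room temperature; swarm area measured by weighing paper cut-outs of imaged swarms.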

[2] = test system: PAO1 biofilm; experiment: Crystal violet based static biofilm inhibition assay, DSHs in LB media (Examples 2 and 4); type: cell-based, Pseudomonas aeruginosa; details: for Anti-biofilm activity (biofilm inhibition): concentration not given; for Inhibition of PAO1 biofilm in presence of pili peptide PAO(128-144)ox: agent 85 μM + pili peptide 85 μM; for Inhibition of PAO1 biofilm in presence of scrambled pili peptide: agent 85 μM + scrambled pili peptide 85 μM
Outline: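 PAO1 subculture (OD600 ~0.1) was grown statically in LB at 37° C for 24 h with or without DSHs (screened at 160 μM). Surface-attached biofilm was then stained with 0.1% crystal violet, solubilised in 30% AcOH and read at 600 nm. Values are the mean of 4 wells.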

[3] = 85 μM in soft agar (0.5%), 24 h

| Structure (SMILES) | Anti-biofilm activity (biofilm inhibition) [2] | Swarming motility of rhlA mutant [1, 3] | Swarming reactivation of rhlA mutant ([1]; 24 h) | IC50 ([2]; Example 2, FIG. 18) | IC50 ([2]; Example 4, FIG. 30) | Concentration of activity reversal for swarming promotion of rhlA mutant (transition concentration) ([1]; soft agar) | also measured |
| --- | --- | --- | --- | --- | --- | --- | --- |
| CCCCCCCCCCCCOS(=O)(=O)[O-].[Na+] [SDS, sodium dodecyl sulfate, reference compound] | did not incur any bioactivity |  |  |  |  |  | Reactivation of swarming motility of rhlA mutant ([1]; sulfate): do not reactivate the swarming motility; also recorded: did not incur any bioactivity; also recorded: did not promote or reactivate |
| CC(C)CCCC(C)CCCC(C)CCO[C@H]1O[C@H](CO)[C@@H](O[C@@H]2O[C@H](CO)[C@@H](O)[C@H](O)[C@H]2O)[C@H](O)[C@H]1O (stereo partly drawn) [SFαC (13), saturated farnesyl-α-cellobioside] | potent PAO1 biofilm inhibitors | no apparent effect on rhlA | incapable of reactivating the swarming | ~32.3 µM | ~32 µM |  | Inhibition of PAO1 biofilm ([2]; 85 μM, agent alone): about 70%; Inhibition of PAO1 biofilm in presence of pili peptide PAO(128-144)ox [2]: 30%; Inhibition of PAO1 biofilm in presence of pili peptide PAO(128-144)ox ([2]; listed as 13: SFαC): exhibited no inhibition of PA biofilm; Inhibition of PAO1 biofilm in presence of scrambled pili peptide [2]: 65%; Inhibition of PAO1 biofilm in presence of scrambled pili peptide ([2]; listed as 13: SFαC): did not compromise the efficacy of the agent |
| CC(C)CCCC(C)CCCC(C)CCO[C@@H]1O[C@H](CO)[C@@H](O[C@@H]2O[C@H](CO)[C@@H](O)[C@H](O)[C@H]2O)[C@H](O)[C@H]1O (stereo partly drawn) [SFβC (12), saturated famesyl-β-cellobioside] | potent PAO1 biofilm inhibitors | no apparent effect on rhlA |  | 4.9 µM | ~9.9 µM | ~8 µM | Swarming motility of rhlA mutant ([1]; 20 μM): did not activate the swarming motility; Swarming reactivation of rhlA mutant ([1]; 24 h, listed as 12: SFbC): does not reactivate the swarming of rhlA mutant; Swarming reactivation of rhlA mutant ([1]; 24 h, listed as 12: SFβC): incapable of reactivating the swarming; Concentration that suppresses reactivation of rhlA swarming by DβC [1]: 20 µM; Concentration that suppresses reactivation of rhlA swarming by DβC ([1]; listed as SFβC): ≤ 20 µM; Concentration range in which swarming of rhlA is reactivated ([1]; soft agar, 24 h): 5-12 W; Concentration of activity reversal for swarming promotion of rhlA mutant (transition concentration) ([1]; soft agar, listed as 12): 8 µM; Concentration up to which there is no interference with swarming reactivation of rhlA by DβC ([1]; with 40 μM DβC): up to 10 μM |
| CC(C)CCCC(C)CCCC(C)CCO[C@@H]1O[C@H](CO)[C@@H](O[C@H]2O[C@H](CO)[C@@H](O)[C@H](O)[C@H]2O)[C@H](O)[C@H]1O (stereo partly drawn) [SFβM (14), saturated farnesyl-β-maltoside] | potent PAO1 biofilm inhibitors | no apparent effect on rhlA | incapable of reactivating the swarming | ~97.2 µM | ~102 µM | ~10 µM | Swarming area of rhlA ([1]; 10 μM, 24 h): ~14 cm2; Concentration of activity reversal for swarming promotion of rhlA mutant (transition concentration) ([1]; soft agar, listed as 14): 10 µM |
| CCCCCCCCCCCCOCCOCCOCCOCCO [C12EG4OH, tetra (ethylene glycol) monododecyl ether, reference compound] | did not incur any bioactivity |  |  |  |  |  | Reactivation of swarming motility of rhlA mutant [1]: do not reactivate the swarming motility; also recorded: did not promote or reactivate; Reactivation of swarming motility of rhlA mutant ([1]; listed as C12EG5OH): did not incur any bioactivity |
